Publication doi:10.1101/366146v2 (biorxiv, 2018)
≈ marks a conversion by molar mass, not a printed value. Like-named read-outs stand apart in the source and are kept apart here. Values belong to the compound of their own block, whether it stands above or below them.

What was measured:
Assay in all cases: microbe, parasite or virus in culture
Design in all cases: species or system Enterobacteriaceae strains
[1] = tested on: E. cloacae NDM-1; conditions: Enterobacter cloacae, NDM1, read-out: MIC
[2] = tested on: K. pneumoniae IMP-8; conditions: Klebsiella pneumoniae, IMP8, read-out: MIC
[3] = tested on: C. freundii NDM-1; conditions: Citrobacter freundii, NDM1, read-out: MIC
[4] = tested on: E. cloacae VIM-1; conditions: Enterobacter cloacae, VIM1, read-out: MIC
[5] = tested on: K. pneumoniae IMP-1; conditions: Klebsiella pneumoniae, IMP1, read-out: MIC
[6] = tested on: P. rettgeri NDM-1; conditions: Providencia rettgeri, NDM1, read-out: MIC
[7] = tested on: K. pneumoniae OXA-48; conditions: Klebsiella pneumoniae, OXA48, read-out: MIC
[8] = tested on: E. cloacae IMP-1; conditions: Enterobacter cloacae, IMP1, read-out: MIC
[9] = tested on: E. coli NDM-1; conditions: Escherichia coli, NDM1, read-out: MIC
[10] = tested on: E. coli NDM-4; conditions: Escherichia coli, NDM4, read-out: MIC
[11] = tested on: E. cloacae IMP-8; conditions: Enterobacter cloacae, IMP8, read-out: MIC
[12] = tested on: K. pneumoniae ATCC BAA 1706; conditions: Klebsiella pneumoniae, BAA1706, read-out: MIC
[13] = tested on: E. coli ATCC 25922; conditions: Escherichia coli, ATCC25922, read-out: MIC
[14] = tested on: P. stuartii NDM-1; conditions: Providencia stuartii, NDM1, read-out: MIC
[15] = tested on: E. coli VIM-1; conditions: Escherichia coli, VIM1, read-out: MIC
[16] = tested on: E. coli IMP-1; conditions: Escherichia coli, IMP1, read-out: MIC
[17] = tested on: K. pneumoniae VIM-1; conditions: Klebsiella pneumoniae, VIM1, read-out: MIC
[18] = tested on: E. coli VIM-2; conditions: Escherichia coli, VIM2, read-out: MIC
[19] = tested on: K. pneumoniae ATCC BAA 1706; conditions: Klebsiella pneumoniae, BAA1706, read-out: MIC; remark: listed apart in the source
[20] = tested on: P. stuartii NDM-1; conditions: Providencia stuartii, NDM1, read-out: MIC; remark: listed apart in the source
[21] = tested on: P. rettgeri NDM-1; conditions: Providencia rettgeri, NDM1, read-out: MIC; remark: listed apart in the source
[22] = tested on: K. pneumoniae IMP-8; conditions: Klebsiella pneumoniae, IMP8, read-out: MIC; remark: listed apart in the source
[23] = tested on: E. cloacae IMP-8; conditions: Enterobacter cloacae, IMP8, read-out: MIC; remark: listed apart in the source
[24] = tested on: E. coli IMP-1; conditions: Escherichia coli, IMP1, read-out: MIC; remark: listed apart in the source
[25] = tested on: E. coli ATCC 25922; conditions: Escherichia coli, ATCC25922, read-out: MIC; remark: listed apart in the source
[26] = tested on: K. pneumoniae VIM-1; conditions: Klebsiella pneumoniae, VIM1, read-out: MIC; remark: listed apart in the source
[27] = tested on: E. cloacae IMP-1; conditions: Enterobacter cloacae, IMP1, read-out: MIC; remark: listed apart in the source
[28] = tested on: C. freundii NDM-1; conditions: Citrobacter freundii, NDM1, read-out: MIC; remark: listed apart in the source
[29] = tested on: E. coli VIM-2; conditions: Escherichia coli, VIM2, read-out: MIC; remark: listed apart in the source
[30] = tested on: E. coli NDM-1; conditions: Escherichia coli, NDM1, read-out: MIC; remark: listed apart in the source
[31] = tested on: E. coli NDM-4; conditions: Escherichia coli, NDM4, read-out: MIC; remark: listed apart in the source
[32] = tested on: E. cloacae NDM-1; conditions: Enterobacter cloacae, NDM1, read-out: MIC; remark: listed apart in the source
[33] = tested on: K. pneumoniae OXA-48; conditions: Klebsiella pneumoniae, OXA48, read-out: MIC; remark: listed apart in the source
[34] = tested on: K. pneumoniae IMP-1; conditions: Klebsiella pneumoniae, IMP1, read-out: MIC; remark: listed apart in the source
[35] = tested on: E. coli VIM-1; conditions: Escherichia coli, VIM1, read-out: MIC; remark: listed apart in the source
[36] = tested on: E. cloacae VIM-1; conditions: Enterobacter cloacae, VIM1, read-out: MIC; remark: listed apart in the source

MIC [1]: > 1020 µg/mL
MIC [2]: 1020 µg/mL (≈ 7930 µM)
MIC [3]: 1020 µg/mL (≈ 7930 µM)
MIC [4]: 128 µg/mL (≈ 991 µM)
MIC [5]: 512 µg/mL (≈ 3960 µM)
MIC [6]: > 1020 µg/mL
MIC [7]: 128 µg/mL (≈ 991 µM)
MIC [8]: 512 µg/mL (≈ 3960 µM)
MIC [9]: 1020 µg/mL (≈ 7930 µM)
MIC [10]: 1020 µg/mL (≈ 7930 µM)
MIC [11]: 512 µg/mL (≈ 3960 µM)
MIC [12]: 1020 µg/mL (≈ 7930 µM)
MIC [13]: 1020 µg/mL (≈ 7930 µM)
MIC [14]: > 1020 µg/mL
MIC [15]: 1020 µg/mL (≈ 7930 µM)
MIC [16]: 512 µg/mL (≈ 3960 µM)
MIC [17]: 512 µg/mL (≈ 3960 µM)
MIC [18]: 128 µg/mL (≈ 991 µM)
SMILES: C1CNCCNCCN1 [compound 1, 1,4,7-triazacyclononane]

MIC [19]: 0.5 µg/mL (≈ 1.3 µM)
MIC [20]: 16 µg/mL (≈ 41.7 µM)
MIC [21]: 64 µg/mL (≈ 167 µM)
MIC [22]: 16 µg/mL (≈ 41.7 µM)
MIC [23]: 8 µg/mL (≈ 20.9 µM)
MIC [24]: 16 µg/mL (≈ 41.7 µM)
MIC [25]: 0.03 µg/mL (≈ 0.0782 µM)
MIC [26]: 32 µg/mL (≈ 83.4 µM)
MIC [27]: 32 µg/mL (≈ 83.4 µM)
MIC [28]: 8 µg/mL (≈ 20.9 µM)
MIC [29]: 8 µg/mL (≈ 20.9 µM)
MIC [30]: 128 µg/mL (≈ 334 µM)
MIC [31]: 128 µg/mL (≈ 334 µM)
MIC [32]: 16 µg/mL (≈ 41.7 µM)
MIC [33]: 8 µg/mL (≈ 20.9 µM)
MIC [34]: 32 µg/mL (≈ 83.4 µM)
MIC [35]: 32 µg/mL (≈ 83.4 µM)
MIC [36]: 8 µg/mL (≈ 20.9 µM)
SMILES: C[C@@H](O)[C@H]1C(=O)N2C(C(=O)O)=C(S[C@@H]3CN[C@H](C(=O)N(C)C)C3)[C@H](C)[C@H]12 [MEM, meropenem]
